Assay results taken from patent US11753388B2, “Composition for inhibiting alpha-glucosidase and application thereof” (ZHENGZHOU FRUIT RESEARCH INSTITUTE, CHINESE ACADEMY OF …, priority 2021, dated 2023).

Tested on: α-glucosidase
Experiment: in vitro α-glucosidase inhibition test (pNPG substrate, OD 405 nm); combination index by Chou-Talalay method with CompuSyn
Format: biochemical, Saccharomyces cerevisiae
Details: single compound
Protocol: α-glucosidase (coming from Saccharomyces cerevisiae, Sigma);
an α-glucosidase solution with a concentration being 0.25 U/mL and a substrate p-nitrophenyl-α-D-glucopyranoside (pNPG) solution with a concentration being […] were prepared by using a PBS buffer solution (0.1 mol L−1 pH 6.8).
40 μL α-glucosidase solution was accurately removed, 100 μL of sample solution to be tested was added respectively, reacted for 10 min at 37° C., then 60 μL of substrate p-nitrophenyl-α-D-glucopyranoside (pNPG) solution was added, reacted for 15 min at 37° C., and an enzyme-linked analyzer measured at a wavelength of 405 nm.
First, daidzein, taxifolin, and 3-O-methyl quercetin were respectively prepared into 10 mg/mL mother solutions by using dimethyl sulfoxide (DMSO); and then a sample solution of the specific concentration of the daidzein, taxifolin, and 3-O-methyl quercetin and composition was prepared with PBS buffer solution.

Molecule: Herbacetin
- Inhibition rate (2.5 μg/mL): 35.2 ± 1.2%

Molecule: COc1ccc(-c2coc3cc(O)ccc3c2=O)cc1 [Formononetin]
- Inhibition rate (20 μg/mL): 60.07 ± 5.3%

Molecule: COc1c(-c2ccc(O)c(O)c2)oc2cc(O)cc(O)c2c1=O [3-O-methyl quercetin, 3-O-Methyl Quercetin]
- Inhibition rate (2 μg/mL): 46.23±1.2%
- Inhibition rate (4 μg/mL): 53.52±3.2%
- Inhibition rate (6 μg/mL): 61.72±3.5%

Molecule: O=C1c2c(O)cc(O)cc2OC(c2ccc(O)cc2O)C1O (stereo not shown) [Dihydromorin]
- Inhibition rate (15 μg/mL): 25.7 ± 4.7%

Molecule: O=c1cc(-c2ccc(O)c(O)c2)oc2cc(O)cc(O)c12 [Luteolin]
- Inhibition rate (1 μg/mL): 45.5 ± 2.7%

Molecule: O=c1cc(-c2ccccc2)oc2cc(O)c(O)c(O)c12 [Baicalein]
- Inhibition rate (10 μg/mL): 38.8 ± 3.3%

Molecule: O=C(/C=C/c1ccc(O)cc1)c1ccc(O)cc1O [Isoliquiritigenin]
- Inhibition rate (4 μg/mL): 35.2 ± 2.5%

Molecule: COc1ccc(C2CC(=O)c3c(O)cc(O)cc3O2)cc1O (stereo not shown) [Hesperetin]
- Inhibition rate (30 μg/mL): 45.2 ± 3.2%

Molecule: O=C(CCc1ccc(O)cc1)c1c(O)cc(O)cc1O [Phloretin]
- Inhibition rate (8 μg/mL): 46.3 ± 2.7%

Molecule: O=c1c(O)c(-c2cc(O)c(O)c(O)c2)oc2cc(O)cc(O)c12 [Myricetin]
- Inhibition rate (1 μg/mL): 41.2 ± 1.5%

Molecule: Oc1cc(O)c2cc(O)c(-c3cc(O)c(O)c(O)c3)[o+]c2c1.[Cl-] [Delphinidin]
- Inhibition rate (1 μg/mL): 50.2 ± 4.3%

Molecule: Chrysin
- Inhibition rate (100 μg/mL): 51.2 ± 5.5%

Molecule: O=c1c(O)c(-c2ccc(O)c(O)c2)oc2cc(O)ccc12 [Fisetin]
- Inhibition rate (6 μg/mL): 46.5 ± 2.3%

Molecule: COc1ccc(-c2coc3cc(O)cc(O)c3c2=O)cc1 [Biochanin A]
- Inhibition rate (0.7 μg/mL): 38.5 ± 2.1%

Molecule: O=C(O[C@@H]1Cc2c(O)cc(O)cc2O[C@@H]1c1cc(O)c(O)c(O)c1)c1cc(O)c(O)c(O)c1 [Epigallocatechin gallate]
- Inhibition rate (0.06 μg/mL): 42.5 ± 3.5%

Molecule: Vitexin
- Inhibition rate (10 μg/mL): 29.2 ± 1.4%

Molecule: O=c1c(-c2ccc(O)cc2)coc2cc(O)ccc12 [Daidzein]
- Inhibition rate (8 μg/mL): 44.5±2.5%
- Inhibition rate (10 μg/mL): 52.25±2.5%

Molecule: COc1cc(O)c2c(=O)cc(-c3ccc(O)cc3)oc2c1 [Genkwanin]
- Inhibition rate (35 μg/mL): 70.12 ± 5.5%

Molecule: O=C1c2c(O)cc(O)cc2O[C@H](c2ccc(O)c(O)c2)[C@H]1O [Taxifolin]
- Inhibition rate (25 μg/mL): 40.12±2.1%
- Inhibition rate (30 μg/mL): 54.5±2.4%
- Inhibition rate (50 μg/mL): 75.21±3.4%

Molecule: COc1ccc(-c2oc3cc(O)cc(O)c3c(=O)c2O)cc1 [Kaempferide]
- Inhibition rate (5 μg/mL): 30.8 ± 1.3%

Molecule: O=c1c(O)c(-c2ccc(O)cc2O)oc2cc(O)cc(O)c12 [Morin]
- Inhibition rate (1 μg/mL): 41.2 ± 2.7%

Molecule: O=c1c(O)c(-c2ccc(O)cc2)oc2cc(O)cc(O)c12 [Kaempferol]
- Inhibition rate (2.5 μg/mL): 40.83 ± 2.3%

Molecule: Oc1cc(O)c2cc(O)c(-c3ccc(O)c(O)c3)[o+]c2c1.[Cl-] [Cyanidin]
- Inhibition rate (0.7 μg/mL): 47.5 ± 1.4%
